Measured values published in US20160375155A1, “Collagen Imaging Compositions” (Collagen Medical, LLC, priority 2015, published 2016).
Like-named read-outs stand apart in the source and are kept apart here.

Assays:
[1] = test system: acute and chronic myocardial infarct (fibrosis); type: in vivo, canine; conditions: for CNR between infarct and blood: Compound ID No. 1 0.0075 mmol/kg, extracellular gadolinium 0.2 mmol/kg
Source text: An experimental protocol was developed to test the ability of Compound ID No. 1 to differentiate acute from chronic myocardial infarction in an in-vivo large animal (canine) model. In this model, early following acute myocardial infarction, pathologic fibrosis has not fully developed within the infarct zone (fibrosis-poor), whereas in chronic MI (˜8 weeks following MI), dense fibrosis fully replaced necrotic myocardium (fibrosis-rich).
In the myocardial fibrosis canine model, a vascular occluder was placed surgically around the left anterior descending coronary artery (LAD) to allow occlusion and reperfusion. Two animals were studied following acute MI and two additional animals were studied both following acute MI, and chronically at 8 weeks. The LAD vessel was completely occluded for 70-90 minutes and then released to allow reperfusion. The chest was sutured closed, and the animal was allowed to recover. Imaging was performed on a 3 T clinical scanner in an acute (<1 week, minimal fibrosis expected in acute necrosis) and chronic (8 weeks, healing complete, necrotic myocardium replaced by dense collagenous scar) time point after infarction. For each time point, the animals undergo 2 scans separated by 48 hours with conventional gadolinium contrast (0.2 mmol/kg GdDTPA) and Compound ID No. 1 (0.0075 mmol/kg).
Imaging was performed on a 3 T clinical scanner (Siemens Verio). Breath holding was achieved by temporarily turning off the animal ventilator, and all images were ECG gated. Standard short and long axis cine imaging was performed throughout the left ventricle to identify left ventricular function and regional wall motion abnormalities. Delayed enhancement imaging (segmented 2D inversion recovery gradient echo) was performed prior to and serially following Compound ID No. 1 administration. Two strategies were employed: (1) a fixed inversion time was chosen to null pre-contrast myocardium (TI˜650 ms), and (2) a variable inversion time set to null post-contrast myocardium as is performed in traditional delayed enhancement imaging.
After imaging, animals were euthanized and post mortem analysis of myocardium was performed. Tissue was assessed grossly by histopathologic staining with triphenyltetrazolium chloride for myocardial infarction, and microscopically with Masson's trichrome staining for fibrosis. Additionally quantitative tissue analysis for hydroxyproline was used to measure total collagen content in tissue and compared to tissue gadolinium concentration by inductively coupled plasma-mass spectrometry. MR data was analyzed quantitatively for conspicuity of infarction and image quality as well as contrast to noise ratio (CNR) for infarct-normal myocardium and infarct-blood.

[2] = test system: fibrotic liver tissue; test: Uptake into fibrotic liver tissue, bile duct ligated (BDL) rats; type: in vivo, Sprague-Dawley rats; conditions: BDL rats vs sham, ~7.5 μmol/kg, 90 min
Description: Bile duct ligated (BDL) rats are selected to assess the uptake of the complexes in fibrotic liver tissue as compared to sham operated animals. In this model, the common bile duct is surgically tied off and the resultant cholestosis results in fibrosis around the bile ducts. Laparotomy is performed in Sprague-Dawley rats with double ligation of the common bile duct with a section between the two ligatures (2-3% isoflurane anesthesia). […] Fibrosis is evident 15 days after ligation and increases with time up to 30 days after ligation, providing defined endpoints for imaging of moderate and severe fibrosis. Studies are conducted by injecting Compound ID. No. 1 at a dose ˜7.5 μmol/kg. After 90 min, the animals are sacrificed and the 4 liver lobes and abdominal muscle are removed and the gadolinium concentration quantified by ICP-MS and collagen content quantified using hydroxyproline concentration.

In the case of CC(C)C[C@H](NC(=O)[C@@H]1CSSC[C@H](NC(=O)[C@H](Cc2c[nH]cn2)NC(=O)[C@H](Cc2c[nH]c3ccccc23)NC(=O)[C@H](CCCCNC(=O)CC[C@H](C(=O)O)N2CCN(CC(=O)O)CCN(CC(=O)O)CCN(CC(=O)O)CC2)NC(=O)CNC(=O)CC[C@H](C(=O)O)N2CCN(CC(=O)O)CCN(CC(=O)O)CCN(CC(=O)O)CC2)C(=O)N[C@@H]([C@@H](C)O)C(=O)N[C@@H]([C@@H](C)O)C(=O)N[C@@H](CCCCNC(=O)CC[C@H](C(=O)O)N2CCN(CC(=O)O)CCN(CC(=O)O)CCN(CC(=O)O)CC2)C(=O)N[C@@H](Cc2ccccc2)C(=O)N2CCC[C@H]2C(=O)N[C@@H](Cc2c[nH]cn2)C(=O)N[C@@H](Cc2c[nH]cn2)C(=O)N[C@@H](Cc2ccc(O)cc2)C(=O)N1)C(=O)N[C@@H](Cc1ccc(O)cc1)C(=O)N[C@@H](Cc1ccc(-c2ccccc2)cc1)C(N)=O [Compound ID No. 1], the “CNR between infarct and blood” value ([1]; acute MI) is reported as 19±7.4, the “T1 of infarct vs normal myocardium” value ([1]; acute myocardial infarction, FIG. 24a) is reported as “longer than normal (N1) myocardium” and the “MR image enhancement of infarct over time” value ([1]; acute myocardial infarction, FIG. 25a) is reported as “lack of contrast early, equilibration with normal myocardium at 30 minutes, and enhancement >1 hr”. For the same compound, the “relationship of compound concentration (gadolinium) vs. collagen concentration (hydroxyproline)” value ([1]; canine heart tissue, FIG. 26) was “linear relationship”, the “CNR between infarct and blood” value ([1]; chronic MI (8 weeks)) was 11±2 and the “extent of the enhanced area” value ([1]; chronic infarct, compared with Gd delayed enhancement) was “matched that of Gd delayed enhancement”. For the same compound, the “T1 of infarct vs normal myocardium” value ([1]; chronic myocardial infarction, FIG. 24b) was “lower T1 than normal myocardium throughout the entire experiment”, the “T1 of infarct vs normal myocardium” value ([1]; chronic myocardial infarction, FIG. 24b, listed as Compound ID. No. 1) was “early and persistent lowering of T1 values” and the “uptake into fibrotic liver tissue” value [2] was “consistent with uptake of Compound ID No. 1 into fibrotic-rich liver tissue”.
